Data as given in ChEMBL document CHEMBL1268939, “Synthesis and evaluation of bivalent, peptidomimetic antagonists of the αvβ3 integrins” (Bioorg Med Chem Lett, 2010).

Biological target: Integrin alpha-V/beta-3 (Homo sapiens, UniProt P05106+P06756)
Experiment: Inhibition of biotinylated vitronectin binding to human alphaVbeta3 integrin after 3 hrs by ELISA
Assay type: protein-complex assay

Chain of Integrin alpha-V/beta-3 (P05106 27-788 limits assumed): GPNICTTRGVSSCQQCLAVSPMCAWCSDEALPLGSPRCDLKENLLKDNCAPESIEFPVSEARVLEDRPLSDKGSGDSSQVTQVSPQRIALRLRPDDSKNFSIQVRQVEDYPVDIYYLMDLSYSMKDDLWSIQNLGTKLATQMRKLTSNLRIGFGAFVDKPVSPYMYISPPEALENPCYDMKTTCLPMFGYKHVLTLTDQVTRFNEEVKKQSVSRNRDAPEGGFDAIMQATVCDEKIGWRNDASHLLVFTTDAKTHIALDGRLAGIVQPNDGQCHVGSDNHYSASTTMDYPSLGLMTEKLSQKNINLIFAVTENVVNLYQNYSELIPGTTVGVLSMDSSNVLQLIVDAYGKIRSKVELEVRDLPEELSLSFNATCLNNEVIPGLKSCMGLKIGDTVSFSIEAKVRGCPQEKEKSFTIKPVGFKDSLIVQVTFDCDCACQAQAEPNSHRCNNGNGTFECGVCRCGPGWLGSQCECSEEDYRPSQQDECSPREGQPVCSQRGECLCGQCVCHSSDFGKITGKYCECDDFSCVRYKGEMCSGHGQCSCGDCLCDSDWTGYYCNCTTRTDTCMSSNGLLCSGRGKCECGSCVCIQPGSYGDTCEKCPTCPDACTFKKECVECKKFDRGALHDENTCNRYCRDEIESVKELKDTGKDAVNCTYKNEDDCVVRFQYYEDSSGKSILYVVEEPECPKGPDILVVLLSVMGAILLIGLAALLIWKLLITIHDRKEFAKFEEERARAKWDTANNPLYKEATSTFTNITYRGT
Chain of Integrin alpha-V/beta-3 (P06756 31-889 limits assumed): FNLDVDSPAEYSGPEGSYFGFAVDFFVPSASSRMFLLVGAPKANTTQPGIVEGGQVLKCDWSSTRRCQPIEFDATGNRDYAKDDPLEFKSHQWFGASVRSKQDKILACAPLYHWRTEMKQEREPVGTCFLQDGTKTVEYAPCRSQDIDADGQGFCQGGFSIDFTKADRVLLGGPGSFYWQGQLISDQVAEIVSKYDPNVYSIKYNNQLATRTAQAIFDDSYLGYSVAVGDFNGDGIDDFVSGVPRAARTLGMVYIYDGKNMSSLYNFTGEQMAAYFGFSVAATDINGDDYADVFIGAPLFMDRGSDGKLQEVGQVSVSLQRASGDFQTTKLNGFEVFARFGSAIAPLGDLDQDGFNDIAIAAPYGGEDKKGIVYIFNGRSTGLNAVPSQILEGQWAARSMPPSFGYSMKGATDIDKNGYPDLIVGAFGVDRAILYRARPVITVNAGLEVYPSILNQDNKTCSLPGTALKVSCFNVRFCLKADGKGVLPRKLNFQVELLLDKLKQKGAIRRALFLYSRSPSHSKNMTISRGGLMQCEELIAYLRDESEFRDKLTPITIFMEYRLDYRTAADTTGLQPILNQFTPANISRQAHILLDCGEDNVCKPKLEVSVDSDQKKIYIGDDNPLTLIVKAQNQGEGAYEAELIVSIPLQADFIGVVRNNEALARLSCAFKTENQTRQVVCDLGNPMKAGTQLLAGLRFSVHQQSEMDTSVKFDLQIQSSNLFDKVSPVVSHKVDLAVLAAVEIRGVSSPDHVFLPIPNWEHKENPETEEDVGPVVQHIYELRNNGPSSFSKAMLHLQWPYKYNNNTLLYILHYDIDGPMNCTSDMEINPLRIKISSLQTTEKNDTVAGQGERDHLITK
Chain of Integrin alpha-V/beta-3 (P06756 891-1048 limits assumed): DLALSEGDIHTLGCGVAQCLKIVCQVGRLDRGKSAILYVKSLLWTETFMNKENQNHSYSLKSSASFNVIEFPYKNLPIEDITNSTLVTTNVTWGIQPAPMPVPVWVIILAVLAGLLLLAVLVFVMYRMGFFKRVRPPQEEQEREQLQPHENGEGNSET

Row | IC50 [nM] | SMILES
1 | 0.32 | CC(C)(CNC(=O)OCCOCCOCCOCCOCCOCCOCCOCCOC(=O)NCC(C)(C)COC(=O)NCCS(=O)(=O)N[C@@H](CNC(=O)c1ccc(OCCN=C2NCCCN2)cc1)C(=O)O)COC(=O)NCCS(=O)(=O)N[C@@H](CNC(=O)c1ccc(OCCN=C2NCCCN2)cc1)C(=O)O
2 | 22.3 | NCCS(=O)(=O)N[C@@H](CNC(=O)c1ccc(OCCNC2=NCCCN2)cc1)C(=O)O
3 | 2.07 | CC(C)(CN)COC(=O)NCCS(=O)(=O)N[C@@H](CNC(=O)c1ccc(OCCNC2=NCCCN2)cc1)C(=O)O
